Test results reported in patent publication US7829708B2, “Metabolically inert antifolates for treating disorders of abnormal cellular proliferation and inflammation” (Chelsea Therapeutics, Inc., priority 2004, dated 2010).

How the values were obtained:
Human TS = Human TS (Homo sapiens, UniProt P04818); test: Inhibition of recombinant thymidylate synthase in vitro; format: biochemical; settings: read-out: I50 (Human TS)
Description: (§1) The ability of M-TREX to inhibit recombinant dihydrofolate reductase (DR) and thymidylate synthase (TS) in vitro studied in comparison to other antifolate drugs.

human DHFR = biological target: T1, human DHFR (Homo sapiens, UniProt P00374); test: Inhibition of recombinant dihydrofolate reductase in vitro; format: biochemical; settings: read-out: I50 (human DHFR)
T1 sequence (P00374 1-187): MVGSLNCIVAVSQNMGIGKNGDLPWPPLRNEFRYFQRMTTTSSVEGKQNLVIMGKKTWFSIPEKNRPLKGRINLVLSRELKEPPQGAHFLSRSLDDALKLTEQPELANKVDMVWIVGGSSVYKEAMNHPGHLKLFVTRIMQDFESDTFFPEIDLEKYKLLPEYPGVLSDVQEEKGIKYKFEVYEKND
Description: as §1

Chain of Human TS (P04818 whole entry): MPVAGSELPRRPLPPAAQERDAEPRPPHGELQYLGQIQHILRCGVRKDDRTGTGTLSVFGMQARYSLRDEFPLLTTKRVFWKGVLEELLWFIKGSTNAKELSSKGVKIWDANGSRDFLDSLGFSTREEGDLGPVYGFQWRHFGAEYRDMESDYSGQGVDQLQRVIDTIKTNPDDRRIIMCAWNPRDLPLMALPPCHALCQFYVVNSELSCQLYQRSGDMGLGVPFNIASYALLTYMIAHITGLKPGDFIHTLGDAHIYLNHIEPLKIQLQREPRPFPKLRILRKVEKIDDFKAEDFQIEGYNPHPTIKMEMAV

Compound	IC50 (Human TS)	IC50 (human DHFR)
C=C(CC(NC(=O)c1ccc(CCc2ccc3nc(N)nc(N)c3c2)cc1)C(=O)O)C(=O)O (stereo not drawn) [M-TREX, 4-Amino-4-deoxy-5,8,10-trideazapteroyl-4′-methylene glutamic acid]	3800 nM	17 nM
C=C(CC(NC(=O)c1ccc(CCc2cnc3nc(N)nc(N)c3n2)cc1)C(=O)O)C(=O)O (stereo not drawn) [MDAM, methylene-1-deazaaminopterine, reference compound]		44 nM
